Reference: patent US20240228489A1, “POSITIVE ALLOSTERIC MODULATORS OF THE MUSCARINIC ACETYLCHOLINE RECEPTOR M1” (Vanderbilt University, priority 2021, published 2024)

What was measured:
human mAChR M1 [1] = target: T1, human mAChR M1 (Homo sapiens, UniProt P11229); assay: mAChR M1 cell-based functional assay (calcium mobilization), PAM mode: increase in the EC20 acetylcholine response
T1 sequence (P11229 1-460): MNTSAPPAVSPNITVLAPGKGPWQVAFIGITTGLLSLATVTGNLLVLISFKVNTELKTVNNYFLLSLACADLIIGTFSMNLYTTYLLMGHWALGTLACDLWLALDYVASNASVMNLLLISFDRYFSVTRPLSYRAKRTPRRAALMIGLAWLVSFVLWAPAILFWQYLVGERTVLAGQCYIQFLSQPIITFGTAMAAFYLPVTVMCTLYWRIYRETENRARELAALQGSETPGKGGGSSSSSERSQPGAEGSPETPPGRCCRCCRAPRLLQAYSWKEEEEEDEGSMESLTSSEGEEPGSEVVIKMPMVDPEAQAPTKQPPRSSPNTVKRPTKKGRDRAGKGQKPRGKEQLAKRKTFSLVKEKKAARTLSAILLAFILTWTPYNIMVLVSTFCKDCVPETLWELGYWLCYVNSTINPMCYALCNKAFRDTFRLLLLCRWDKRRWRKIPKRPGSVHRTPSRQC
Excerpt: (§1) Chinese hamster ovary (CHO-K1) cells stably expressing rat (r)M1 were purchased from the American Type Culture Collection and cultured according to their indicated protocol. CHO cells stably expressing human (h)M2, hM3, and hM5 were described previously (Levey, et al., 1991); hM1 and hM4 cDNAs were purchased from Missouri S&T cDNA Resource; rM4 cDNA was provided by T. I. Bonner (National Institutes of Health, Bethesda, MD). rM2 and rM3 were cloned from a rat brain cDNA library and sequence verified. hM1, rM2, rM3, hM4, and rM4 cDNAs were used to stably transfect CHO-K1 cells purchased from the American Type Culture Collection using Lipofectamine2000. To make stable rM2, hM2, rM3, hM4, and rM4 cell lines for use in calcium mobilization assays, these cells also were stably transfected with a chimeric G-protein (Gqi5) (provided by B. R. Conklin, University of California, San Francisco) using Lipofectamine 2000. rM1, hM1, rM3, hM3, rM5, and hM5 cells were grown in Ham's F-12 medium containing 10% heat-inactivated fetal bovine serum (FBS), 20 mM HEPES, and 50 μg/mL G418 sulfate. rM2-Gqi5, hM2-Gqi5, and hM4-Gqi5 cells were grown in the same medium also containing 500 μg/mL Hygromycin B. Stable rM4-Gqi5 cells were grown in DMEM containing 10% heat-inactivated FBS, 20 mM HEPES, 400 μg/mL G418 sulfate, and 500 μg/mL Hygromycin B.
(§2) For high throughput measurement of agonist-evoked increases in intracellular calcium, CHO-K1 cells stably expressing muscarinic receptors were plated in growth medium lacking G418 and hygromycin at 15,000 cells/20 μL/well in Greiner 384-well black-walled, tissue culture (TC)-treated, clear-bottom plates (VWR). Cells were incubated overnight at 37° C. and 5% C02. The next day, cells were washed using an ELX 405 (BioTek) with four washes (80 μL) of assay buffer then aspirated to 20 μL. Next, 20 μL of 16 μM Fluo-4/acetoxymethyl ester (Invitrogen, Carlsbad, CA) prepared as a 2.3 mM stock in DMSO and mixed in a 1:1 ratio with 10% (w/v) Pluronic F-127 and diluted in assay buffer was added to the wells and the cell plates were incubated for 50 min at 37° C. and 5% C02. Dye was removed by washing with the ELX 405 (four 80 μL washes of assay buffer) then aspirated to 20 μL. Compound master plates were formatted in an 11 point CRC format (1:3 dilutions) in 100% DMSO with a starting concentration of 10 mM using the BRAVO liquid handler (Agilent). Test compound CRCs were then transferred to daughter plates (240 nL) using the Echo acoustic plate reformatter (Labcyte, Sunnyvale, CA) and then diluted into assay buffer (40 μL) to a 2× stock using a Thermo Fisher Combi (Thermo Fisher Scientific, Waltham, MA).
Calcium flux was measured using the Functional Drug Screening System (FDSS) 6000 (Hamamatsu Corporation, Tokyo, Japan) as an increase in the fluorescent static ratio. Compounds were applied to cells (20 μL, 2×) using the automated system of the FDSS 6000 at 4 s into the 300 s protocol and the data were collected at 1 Hz. At 144 s into the 300 s protocol, 10 μL of an EC20 concentration of the muscarinic receptor agonist acetylcholine was added (5×), followed by the addition of 12 μL of an EC80 concentration of acetylcholine at the 230 s time point (5×). Agonist activity was analyzed as a concentration-dependent increase in calcium mobilization upon compound addition. Emax values for agonist activity are expressed relative to the maximum for acetylcholine. Positive allosteric modulator activity was analyzed as a concentration-dependent increase in the EC20 acetylcholine response. Antagonist activity was analyzed as a concentration-dependent decrease in the EC80 acetylcholine response. Concentration-response curves were generated using a four-parameter logistical equation in XLfit curve fitting software (IDBS, Bridgewater, NJ) for Excel (Microsoft, Redmond, WA) or Prism (GraphPad Software, Inc., San Diego, CA). […]

human mAChR M1 [2] = target: T1, human mAChR M1; assay: mAChR M1 cell-based functional assay (calcium mobilization), agonist mode: compound alone, Emax relative to acetylcholine maximum; conditions: for Agonist Activity Human M1 EC50 / EC50: human mAChR M1; for Emax: relative to the maximum for acetylcholine
Excerpt: as §1, §2
Calcium flux was measured using the Functional Drug Screening System (FDSS) 6000 (Hamamatsu Corporation, Tokyo, Japan) as an increase in the fluorescent static ratio. Compounds were applied to cells (20 μL, 2×) using the automated system of the FDSS 6000 at 4 s into the 300 s protocol and the data were collected at 1 Hz. At 144 s into the 300 s protocol, 10 μL of an EC20 concentration of the muscarinic receptor agonist acetylcholine was added (5×), followed by the addition of 12 μL of an EC80 concentration of acetylcholine at the 230 s time point (5×). Agonist activity was analyzed as a concentration-dependent increase in calcium mobilization upon compound addition. Emax values for agonist activity are expressed relative to the maximum for acetylcholine. Positive allosteric modulator activity was analyzed as a concentration-dependent increase in the EC20 acetylcholine response. Antagonist activity was analyzed as a concentration-dependent decrease in the EC80 acetylcholine response. Concentration-response curves were generated using a four-parameter logistical equation in XLfit curve fitting software (IDBS, Bridgewater, NJ) for Excel (Microsoft, Redmond, WA) or Prism (GraphPad Software, Inc., San Diego, CA).

EC50 (human mAChR M1 [1])	Emax (human mAChR M1 [1])	Agonist Activity Human M1 EC50 (human mAChR M1 [2])	Emax (human mAChR M1 [2])	EC50 (human mAChR M1 [2])	Structure (SMILES)
1840 nM	79%	Inactive	2%		[2H]C1([2H])c2ncccc2C(=O)N1Cc1c(F)cc(-c2cccc3c2cnn3C(C)C)cc1F [Compound 64, 6-(2,6-difluoro-4-(1-isopropyl-1H-indazol-4-yl)benzyl)-6,7-dihydro-5H-pyrrolo[3,4-b]pyridin-5-one-7,7-d2]
423 nM	65%		14%	≥ 10000 nM	[2H]C1([2H])c2ncc(OCCc3ccccn3)cc2C(=O)N1Cc1c(F)cc(-c2cccc3nn(C([2H])([2H])[2H])cc23)cc1F [Compound 126, 6-(2,6-difluoro-4-(2-(methyl-d3)-2H-indazol-4-yl)benzyl)-3-(2-(pyridin-2-yl)ethoxy)-6,7-dihydro-5H-pyrrolo[3,4-b]pyridin-5-one-7,7-d2]
1170 nM	86%		2%	> 10000 nM	[2H]C1([2H])c2ncccc2C(=O)N1Cc1c(F)cc(-c2cccc3nn(C(C)C)cc23)cc1F [Compound 43, 6-(2,6-difluoro-4-(2-isopropyl-2H-indazol-4-yl)benzyl)-6,7-dihydro-5H-pyrrolo[3,4-b]pyridin-5-one-7,7-d2]
> 10000 nM	58%	Inactive	4%		[2H]C1([2H])c2ncccc2C(=O)N1Cc1ccc(-c2ccn3ccnc3c2)cc1 [Compound 19, 6-(4-(imidazo[1,2-a]pyridin-7-yl)benzyl)-6,7-dihydro-5H-pyrrolo[3,4-b]pyridin-5-one-7,7-d2]
256 nM	85%	Inactive	2%		[2H]C1([2H])c2ncccc2C(=O)N1Cc1c(F)cc(-c2ccc3nn(C)cc3c2)cc1Cl [Compound 167, 6-(2-chloro-6-fluoro-4-(2-methyl-2H-indazol-5-yl)benzyl)-6,7-dihydro-5H-pyrrolo[3,4-b]pyridin-5-one-7,7-d2]
2710 nM	71%	Inactive	9%		[2H]C1([2H])c2ncccc2C(=O)N1Cc1c(F)cc(-c2ccnc3nn(C([2H])([2H])[2H])cc23)cc1F [Compound 188, 6-(2,6-difluoro-4-(2-(methyl-d3)-2H-pyrazolo[3,4-b]pyridin-4-yl)benzyl)-6,7-dihydro-5H-pyrrolo[3,4-b]pyridin-5-one-7,7-d2]
≥ 10000 nM	42%	Inactive	1%		[2H]C1([2H])c2ncccc2C(=O)N1Cc1ccc(-c2cccc3nn(C([2H])([2H])[2H])cc23)cc1C(C)C [Compound 234, 6-(2-isopropyl-4-(2-(methyl-d3)-2H-indazol-4-yl)benzyl)-6,7-dihydro-5H-pyrrolo[3,4-b]pyridin-5-one-7,7-d2]
654 nM	51%	Inactive	2%		[2H]C1([2H])c2ncccc2C(=O)N1Cc1c(F)cc(-c2cc(Cl)cc3nn(C([2H])([2H])[2H])cc23)cc1F [Compound 85, 6-(4-(6-chloro-2-(methyl-d3)-2H-indazol-4-yl)-2,6-difluorobenzyl)-6,7-dihydro-5H-pyrrolo[3,4-b]pyridin-5-one-7,7-d2]

Continued, compound first:

Structure (SMILES)	EC50 (human mAChR M1 [1])	Emax (human mAChR M1 [1])	Agonist Activity Human M1 EC50 (human mAChR M1 [2])	Emax (human mAChR M1 [2])	EC50 (human mAChR M1 [2])
[2H]C1([2H])c2ncccc2C(=O)N1Cc1c(F)cc(-c2cc(F)cc3nn(C([2H])([2H])[2H])cc23)cc1F [Compound 86, 6-(2,6-difluoro-4-(6-fluoro-2-(methyl-d3)-2H-indazol-4-yl)benzyl)-6,7-dihydro-5H-pyrrolo[3,4-b]pyridin-5-one-7,7-d2]	237 nM	46%	Inactive	2%	
[2H]C1([2H])c2ncccc2C(=O)N1Cc1ccc(-c2cc3cn(C)nc3cc2F)cc1 [Compound 15, 6-(4-(6-fluoro-2-methyl-2H-indazol-5-yl)benzyl)-6,7-dihydro-5H-pyrrolo[3,4-b]pyridin-5-one-7,7-d2]	1770 nM	51%	Inactive	2%	
[2H]C1([2H])c2ncccc2C(=O)N1Cc1c(F)cc(-c2ccc3nn(C)cc3c2)cc1OCC(C)C [Compound 211, 6-(2-fluoro-6-isobutoxy-4-(2-methyl-2H-indazol-5-yl)benzyl)-6,7-dihydro-5H-pyrrolo[3,4-b]pyridin-5-one-7,7-d2]	1290 nM	88%	Inactive	3%	
[2H]C1([2H])c2ncccc2C(=O)N1Cc1c(F)cc(-c2cn(C)c(=O)c3nn(C)cc23)cc1F [Compound 79, 4-(3,5-difluoro-4-((5-oxo-5,7-dihydro-6H-pyrrolo[3,4-b]pyridin-6-yl-7,7-d2)methyl)phenyl)-2,6-dimethyl-2,6-dihydro-7H-pyrazolo[3,4-c]pyridin-7-one]	793 nM	79%		16%	≥ 10000 nM
[2H]C1([2H])c2ncccc2C(=O)N1Cc1c(F)cc(-c2cccc3nn(C([2H])([2H])[2H])cc23)cc1OC [Compound 232, 6-(2-fluoro-6-methoxy-4-(2-(methyl-d3)-2H-indazol-4-yl)benzyl)-6,7-dihydro-5H-pyrrolo[3,4-b]pyridin-5-one-7,7-d2]	760 nM	80%	Inactive	8%	
[2H]C1([2H])c2ncccc2C(=O)N1Cc1c(F)cc(-c2ccc(Cl)c3nn(C([2H])([2H])[2H])cc23)cc1F [Compound 73, 6-(4-(7-chloro-2-(methyl-d3)-2H-indazol-4-yl)-2,6-difluorobenzyl)-6,7-dihydro-5H-pyrrolo[3,4-b]pyridin-5-one-7,7-d2]	170 nM	77%	Inactive	1%	
